Results taken from patent US20210227837A1, “NATAMYCIN FOR THE PRESERVATION OF A BAKED PRODUCT” (DSM IP ASSETS B.V., priority 2018, published 2021).

Legend:
[1] = Stability of natamycin solutions in propylene glycol and aqueous potassium formate (residual natamycin by HPLC); assay type: physicochemical; settings: natamycin 1% (w/w)
Experimental: (§1) Natamycin concentrations were determined using […] as follows. • HPLC system: Waters iClass • Column: Waters Symmetry C18, 4.6×150 mm, 3.5 μm, Part No. WAT200632, Column no. 1483, Lot no. 0198313011 • Column temperature: 25° C. • Eluent A: 50 mM ammonium acetate buffer pH 5.8 (with acetic acid) • Eluent B: Acetonitrile • Wash: 60% acetonitrile/40% water (v/v) • Injection volume: 10 μl • Injector temperature: 10° C. in darkness • Flow: 1 mL/min
(§2) The reverse phase HPLC uses a UV detector to determine the residual concentration of natamycin at 303 nm. A set of standard dilutions containing subsequently increasing concentrations of natamycin in methanol was made and from these a calibration curve was obtained. The concentration of natamycin should not exceed a concentration of 88 mg/L. Generally, the dilutions contained 20 mg of sample and […] of methanol.
A 3.5 M solution of potassium formate in water (15.17 g) was mixed with propylene glycol (80.32 g) and natamycin (1.059 g) and heated for 2.57 h until a final temperature of 105° C. A second batch was prepared by mixing a 3.5 M solution of potassium formate in water (15.07 g) with propylene glycol (80.5 g) and natamycin (1.032 g) and heating for 3.25 h until a final temperature of 105° C. Both batches were filtered over a 2 μm filter and combined to give a solution with a natamycin concentration of 1.08% (w/w). […] Samples of the mixtures were analyzed over time by HPLC for residual natamycin concentration. The shelf life test of the mixtures was done by storage at low temperatures (4-7° C.) and ambient temperatures (20-24° C.).

[2] = Stability of natamycin solutions in propylene glycol and aqueous sodium acetate or potassium acetate (residual natamycin by HPLC); assay type: physicochemical; settings: 4-7° C., natamycin 1%
Experimental: as §1, §2
(§3) A 4.4 M solution of sodium acetate or a 5 M solution of potassium acetate in water (3 g) was mixed with propylene glycol (16 g) and natamycin (0.2 g) and heated until a final temperature of 105° C. to give a solution with a natamycin concentration of 1% (w/w). […] Samples of the mixtures were analyzed over time by HPLC for residual natamycin concentration. The shelf life test of the mixtures was done by storage at low temperatures (4-7° C.) and ambient temperatures (20-23° C.).

[3] = Stability of natamycin solutions in propylene glycol and aqueous sodium lactate (residual natamycin by HPLC); assay type: physicochemical; settings: 4-7° C., pH 7.8, natamycin 1% (w/w)
Experimental: as §1, §2
as §3, with “[…]” for “4.4”, “lactate” for “acetate or a 5 M solution of potassium acetate”, “(4-7°” for “(4-7° C.) and ambient temperatures (20-23°”

[4] = neutral pH values; cited from earlier work

Residual natamycin (%) ([1]; Blank (water instead of potassium formate), propylene glycol, 4-7° C., pH 6.2, day 0): 80%
Residual natamycin (%) ([1]; Blank (water instead of potassium formate), propylene glycol, 4-7° C., pH 6.2, day 14): 43%
Residual natamycin (%) ([1]; Blank (water instead of potassium formate), propylene glycol, 4-7° C., pH 6.2, day 23): 22%
Residual natamycin (%) ([1]; Blank (water instead of potassium formate), propylene glycol, 4-7° C., pH 6.2, day 32): 12%
Residual natamycin (%) ([1]; Blank (water instead of potassium formate), propylene glycol, 4-7° C., pH 6.2, day 35): 7%
Residual natamycin (%) ([1]; Blank (water instead of potassium formate), propylene glycol, 20-24° C., pH 6.3, day 0): 83%
Residual natamycin (%) ([1]; Blank (water instead of potassium formate), propylene glycol, 20-24° C., pH 6.3, day 5): 72%
Residual natamycin (%) ([1]; Blank (water instead of potassium formate), propylene glycol, 20-24° C., pH 6.3, day 7): 66%
Residual natamycin (%) ([1]; Blank (water instead of potassium formate), propylene glycol, 20-24° C., pH 6.3, day 12): 55%
Residual natamycin (%) ([1]; Blank (water instead of potassium formate), propylene glycol, 20-24° C., pH 6.3, day 14): 52%
Residual natamycin (%) ([1]; Blank (water instead of potassium formate), propylene glycol, 20-24° C., pH 6.3, day 25): 31%
Residual natamycin (%) ([1]; Blank (water instead of potassium formate), propylene glycol, 20-24° C., pH 6.3, day 27): 25%
Residual natamycin (%) ([1]; Blank (water instead of potassium formate), propylene glycol, 20-24° C., pH 6.3, day 43): 18%
Residual natamycin (%) ([1]; Blank (water instead of potassium formate), propylene glycol, 20-24° C., pH 6.3, day 74): 6%
Residual natamycin (%) ([1]; propylene glycol + aqueous potassium formate, 4-7° C., pH 9.5, day 0): 111%
Residual natamycin (%) ([1]; propylene glycol + aqueous potassium formate, 4-7° C., pH 9.5, day 5): 114%
Residual natamycin (%) ([1]; propylene glycol + aqueous potassium formate, 4-7° C., pH 9.5, day 14): 114%
Residual natamycin (%) ([1]; propylene glycol + aqueous potassium formate, 4-7° C., pH 9.5, day 23): 112%
Residual natamycin (%) ([1]; propylene glycol + aqueous potassium formate, 4-7° C., pH 9.5, day 43): 108%
Residual natamycin (%) ([1]; propylene glycol + aqueous potassium formate, 4-7° C., pH 9.8, day 0): 96%
Residual natamycin (%) ([1]; propylene glycol + aqueous potassium formate, 4-7° C., pH 9.8, day 4): 96%
Residual natamycin (%) ([1]; propylene glycol + aqueous potassium formate, 4-7° C., pH 9.8, day 10): 97%
Residual natamycin (%) ([1]; propylene glycol + aqueous potassium formate, 4-7° C., pH 9.8, day 15): 88%
Residual natamycin (%) ([1]; propylene glycol + aqueous potassium formate, 4-7° C., pH 9.8, day 18): 92%
Residual natamycin (%) ([1]; propylene glycol + aqueous potassium formate, 4-7° C., pH 9.8, day 25): 91%
Residual natamycin (%) ([1]; propylene glycol + aqueous potassium formate, 4-7° C., pH 9.8, day 42): 88%
Residual natamycin (%) ([1]; propylene glycol + aqueous potassium formate, 4-7° C., pH 9.8, day 53): 90%
Residual natamycin (%) ([1]; propylene glycol + aqueous potassium formate, 4-7° C., pH 9.8, day 60): 96%
Residual natamycin (%) ([1]; propylene glycol + aqueous potassium formate, 4-7° C., pH 9.8, day 80): 87%
Residual natamycin (%) ([1]; propylene glycol + aqueous potassium formate, 4-7° C., pH lowered to 5.9 by formic acid, day 0): 83%
Residual natamycin (%) ([1]; propylene glycol + aqueous potassium formate, 4-7° C., pH lowered to 5.9 by formic acid, day 5): 66%
Residual natamycin (%) ([1]; propylene glycol + aqueous potassium formate, 4-7° C., pH lowered to 5.9 by formic acid, day 14): 45%
Residual natamycin (%) ([1]; propylene glycol + aqueous potassium formate, 4-7° C., pH lowered to 5.9 by formic acid, day 23): 21%
Residual natamycin (%) ([1]; propylene glycol + aqueous potassium formate, 4-7° C., pH lowered to 5.9 by formic acid, day 43): 2%
Residual natamycin (%) ([1]; propylene glycol + aqueous potassium formate, 4-7° C., pH lowered to 8.8 by formic acid, day 0): 94%
Residual natamycin (%) ([1]; propylene glycol + aqueous potassium formate, 4-7° C., pH lowered to 8.8 by formic acid, day 5): 96%
Residual natamycin (%) ([1]; propylene glycol + aqueous potassium formate, 4-7° C., pH lowered to 8.8 by formic acid, day 14): 94%
Residual natamycin (%) ([1]; propylene glycol + aqueous potassium formate, 4-7° C., pH lowered to 8.8 by formic acid, day 23): 93%
Residual natamycin (%) ([1]; propylene glycol + aqueous potassium formate, 4-7° C., pH lowered to 8.8 by formic acid, day 43): 86%
Residual natamycin (%) ([1]; propylene glycol + aqueous potassium formate, 4-7° C., pH lowered to 9.0 by formic acid, day 0): 93%
Residual natamycin (%) ([1]; propylene glycol + aqueous potassium formate, 4-7° C., pH lowered to 9.0 by formic acid, day 5): 97%
Residual natamycin (%) ([1]; propylene glycol + aqueous potassium formate, 4-7° C., pH lowered to 9.0 by formic acid, day 14): 94%
Residual natamycin (%) ([1]; propylene glycol + aqueous potassium formate, 4-7° C., pH lowered to 9.0 by formic acid, day 23): 93%
Residual natamycin (%) ([1]; propylene glycol + aqueous potassium formate, 4-7° C., pH lowered to 9.0 by formic acid, day 43): 92%
Residual natamycin (%) ([1]; propylene glycol + aqueous potassium formate, 20-24° C., pH 9.8, day 0): 92%
Residual natamycin (%) ([1]; propylene glycol + aqueous potassium formate, 20-24° C., pH 9.8, day 5): 95%
Residual natamycin (%) ([1]; propylene glycol + aqueous potassium formate, 20-24° C., pH 9.8, day 7): 95%
Residual natamycin (%) ([1]; propylene glycol + aqueous potassium formate, 20-24° C., pH 9.8, day 9): 92%
Residual natamycin (%) ([1]; propylene glycol + aqueous potassium formate, 20-24° C., pH 9.8, day 12): 87%
Residual natamycin (%) ([1]; propylene glycol + aqueous potassium formate, 20-24° C., pH 9.8, day 18): 92%
Residual natamycin (%) ([1]; propylene glycol + aqueous potassium formate, 20-24° C., pH 9.8, day 20): 87%
Residual natamycin (%) ([1]; propylene glycol + aqueous potassium formate, 20-24° C., pH 9.8, day 27): 86%
Residual natamycin (%) ([1]; propylene glycol + aqueous potassium formate, 20-24° C., pH 9.8, day 32): 82%
Residual natamycin (%) ([1]; propylene glycol + aqueous potassium formate, 20-24° C., pH 9.8, day 35): 83%
Residual natamycin (%) ([1]; propylene glycol + aqueous potassium formate, 20-24° C., pH 9.8, day 43): 80%
Residual natamycin (%) ([1]; propylene glycol + aqueous potassium formate, 20-24° C., pH 9.8, day 74): 69%
Residual natamycin (%) ([2]; Blank (absence of sodium), propylene glycol, pH 6.2, day 0): 80%
Residual natamycin (%) ([2]; Blank (absence of sodium), propylene glycol, pH 6.2, day 12): 43%
Residual natamycin (%) ([2]; Blank (absence of sodium), propylene glycol, pH 6.2, day 23): 22%
Residual natamycin (%) ([2]; Blank (absence of sodium), propylene glycol, pH 6.2, day 30): 12%
Residual natamycin (%) ([2]; Blank (absence of sodium), propylene glycol, pH 6.2, day 31): 7%
Residual natamycin (%) ([2]; Blank (absence of sodium), propylene glycol, pH 6.2, day 50): 1%
Residual natamycin (%) ([2]; propylene glycol + aqueous sodium acetate, pH 8.2, day 0): 98%
Residual natamycin (%) ([2]; propylene glycol + aqueous sodium acetate, pH 8.2, day 31): 72%
Residual natamycin (%) ([2]; propylene glycol + aqueous sodium acetate, pH 8.2, day 51): 58%
Residual natamycin (%) ([3]; day 0): 89%
Residual natamycin (%) ([3]; day 1): 88%
Residual natamycin (%) ([3]; day 3): 84%
Residual natamycin (%) ([3]; day 6): 81%
Residual natamycin (%) ([3]; day 10): 84%
Residual natamycin (%) ([3]; day 27): 71%
Residual natamycin (%) ([3]; day 38): 63%
Residual natamycin (%) ([3]; day 45): 62%
Residual natamycin (%) ([3]; day 65): 45%
SMILES: C[C@@H]1C/C=C/C=C/C=C/C=C/[C@H](O[C@@H]2O[C@H](C)[C@@H](O)[C@H](N)[C@@H]2O)C[C@@H]2O[C@](O)(C[C@@H](O)C[C@H]3O[C@@H]3/C=C/C(=O)O1)C[C@H](O)[C@H]2C(=O)O [natamycin]
solubility in water [4]: around 0.04 g/kg
